# From ChEMBL document CHEMBL2218064, “Structure-activity relationship data for chemical series of antagonists of the P2X7 receptor (Supplementary Bioactivity Data for publication CHEMBL1157114)”
# Target: T1, P2X purinoceptor 7 (Homo sapiens, UniProt Q99572)
# T1 sequence (Q99572 whole entry): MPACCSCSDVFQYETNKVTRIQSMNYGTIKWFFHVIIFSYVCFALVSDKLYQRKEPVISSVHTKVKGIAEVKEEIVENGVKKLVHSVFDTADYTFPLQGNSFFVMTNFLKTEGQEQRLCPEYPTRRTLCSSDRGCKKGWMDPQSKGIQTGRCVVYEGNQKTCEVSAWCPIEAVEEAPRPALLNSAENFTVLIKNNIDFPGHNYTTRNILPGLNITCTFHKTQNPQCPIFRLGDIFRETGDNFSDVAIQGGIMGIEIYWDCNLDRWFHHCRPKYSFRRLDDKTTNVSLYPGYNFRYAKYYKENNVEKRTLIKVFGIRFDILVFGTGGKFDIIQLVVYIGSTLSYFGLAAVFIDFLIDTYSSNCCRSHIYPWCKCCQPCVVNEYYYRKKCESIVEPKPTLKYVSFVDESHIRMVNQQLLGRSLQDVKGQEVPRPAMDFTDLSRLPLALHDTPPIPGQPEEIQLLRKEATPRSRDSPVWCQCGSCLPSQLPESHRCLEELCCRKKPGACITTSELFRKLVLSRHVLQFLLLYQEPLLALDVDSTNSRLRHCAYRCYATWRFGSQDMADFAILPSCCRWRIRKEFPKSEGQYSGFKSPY
# Test: SUPPLEMENTARY: Inhibition of human P2X7 receptor assessed as inhibition of ethidium bromide accumulation. Same assay as CHEMBL1103860
row,SMILES,IC50
1,CN1C(=O)N(C2CCCC2)CC1C(=O)NCc1ccc(Cl)cc1Cl (configuration not stated),5.01 nM
2,O=C1CN(C(=O)c2cccc(C(F)(F)F)c2Cl)CCN1CC(F)(F)F,200 nM
3,Cc1ccccc1N1CCN(Cc2cccc(Cl)c2Cl)C(=O)C1=O,25.1 nM
4,O=C(c1cccc(C(F)(F)F)c1Cl)N1CCn2c(-c3cccc(C(F)(F)F)c3Cl)cnc2C1,631 nM
5,O=C(c1ccc(Cl)cc1Cl)N1CCn2c(nc(Cl)c2Cl)C1,39.8 nM
6,O=C(c1cccc(C(F)(F)F)c1Cl)N1CCn2c(-c3ccc(Cl)cc3)cnc2C1,251 nM
7,O=C(c1cccc(C(F)(F)F)c1Cl)N1CCN(c2ccc(F)cc2)C(=O)C1,25.1 nM
8,O=C(c1cccc(C(F)(F)F)c1Cl)N1CCn2c(nnc2-c2ccc(F)cc2F)C1,15.8 nM
9,Cn1ccc(-c2nnc3n2CCN(C(=O)c2cccc(C(F)(F)F)c2Cl)C3)n1,5.01 nM
10,Cc1nn(CC(C)(C)O)c(C)c1CC(=O)NCc1ccc(F)cc1Cl,316 nM
11,COc1c(Br)cccc1N1CCN(Cc2ccc(F)cc2Cl)C(=O)C1=O,50.1 nM
12,COc1ccc(-n2nc(C)c(CC(=O)NCc3ccc(F)cc3Cl)c2C)cn1,251 nM
13,COc1ccccc1N1CCN(Cc2ccc(F)cc2Cl)C(=O)C1=O,50.1 nM
14,CCN1C(=O)CC[C@H]1C(=O)NCc1ccc(Br)cc1F,39.8 nM
15,CN1C(=O)N(c2ncccn2)C[C@H]1C(=O)NCc1ccc(Cl)cc1Cl,6.31 nM
16,CN1C(=O)NC[C@H]1C(=O)NCc1cccc(C(F)(F)F)c1F,39.8 nM
17,CN1C[C@@H](C(=O)NCc2ccc(F)cc2Cl)NC1=O,794 nM
18,Cc1ccccc1N1CCN(Cc2ccc(Cl)cc2Cl)C(=O)C1=O,10 nM
19,Cc1c(Cl)cccc1N1CCN(Cc2ccc(F)cc2Cl)C(=O)C1=O,12.6 nM
20,Cn1ncc(F)c1CC(=O)NCc1ccc(Cl)cc1Cl,50.1 nM
21,Cc1ccc(Br)cc1N1CCN(C(=O)c2cccc(C(F)(F)F)c2Cl)CC1=O,39.8 nM
22,O=C(c1cccc(C(F)(F)F)c1Cl)N1CCn2c(nnc2C2CCCCC2)C1,50.1 nM
23,CN1C(=O)CC[C@@H]1C(=O)NCc1cccc(C(F)(F)F)c1F,200 nM
24,Cc1ccccc1N1CCN(Cc2ccccc2Cl)C(=O)C1=O,126 nM
25,Cc1ccc(N2C[C@@H](C(=O)NCc3ccc(Cl)cc3Cl)N(C)C2=O)cn1,25.1 nM
26,O=C1C(=O)N(c2ccccc2-c2ccccc2)CCN1Cc1ccc(F)cc1Cl,126 nM

row,SMILES,IC50
1,CC(C)(C)c1nnc2n1CCN(C(=O)c1cccc(C(F)(F)F)c1Cl)C2,200 nM
2,O=C(c1cccc(Cl)c1Cl)N1CCN(c2ccc(F)cc2)C(=O)C1,100 nM
3,Cc1nn(-c2nccs2)c(C)c1CC(=O)NCc1ccc(F)cc1Cl,316 nM
4,Cc1c(Cl)cccc1CNC(=O)[C@@H]1CCCS(=O)(=O)N1C(C)C,631 nM
5,O=C(c1cccc(C(F)(F)F)c1Cl)N1CCn2c(nc(C(F)(F)F)c2-c2ccccc2)C1,50.1 nM
6,O=C(c1ccc(F)cc1Cl)N1CCn2c(Br)nnc2C1,316 nM
7,Cc1c(Cl)cccc1CNC(=O)[C@H]1CCC(=O)N1C,100 nM
8,Cn1cccc1-c1nnc2n1CCN(C(=O)c1cccc(Cl)c1Cl)C2,12.6 nM
9,COc1ccc(Br)cc1N1CCN(Cc2ccc(F)cc2Cl)C(=O)C1=O,79.4 nM
10,Cc1cccc(N2CCN(Cc3ccc(F)cc3Cl)C(=O)C2=O)c1C,5.01 nM
11,Cc1nn(C(C)C)c(C)c1CC(=O)NCc1ccc(F)cc1Cl,631 nM
12,CN1C[C@@H](C(=O)NCc2c(Cl)cc(Cl)cc2Cl)N(C)C1=O,0.794 nM
13,O=C(NCc1cccc(C(F)(F)F)c1Cl)[C@H]1CCC(=O)N1C1CCCC1,100 nM
14,CC(C)(C)c1ccccc1N1CCN(Cc2ccc(F)cc2Cl)C(=O)C1=O,20 nM
15,Cc1nn(-c2ccccc2)c(C)c1CC(=O)NCc1cc(C(F)(F)F)ccc1Cl,501 nM
16,CCN1C(=O)CCC1(C)C(=O)NCc1ccc(Cl)cc1Cl (configuration not stated),100 nM
17,O=C(c1ccccc1Cl)N1CCn2c(nnc2-c2cnccn2)C1,20 nM
18,Cc1c(Cl)cccc1CNC(=O)[C@@H]1CN(c2ncccn2)C(=O)N1C,7.94 nM
19,CC(C)N1[C@H](C(=O)NCc2ccc(F)cc2Cl)CCS1(=O)=O,200 nM
20,O=C1C(=O)N(c2ccccc2Br)CCN1Cc1ccc(F)cc1Cl,12.6 nM
21,CCN1C(=O)CC[C@H]1C(=O)NCc1cccc(C(F)(F)F)c1C#N,3.16 nM
22,N#Cc1cc(F)ccc1N1CCN(C(=O)c2cccc(Cl)c2Cl)CC1=O,3.98 nM
23,CN1C(=O)N(c2cccnc2Cl)C[C@H]1C(=O)NCc1ccc(Cl)cc1Cl,5.01 nM
24,O=C(Cc1cnn(CCO)c1C(F)(F)F)NCc1ccc(F)cc1Cl,200 nM
25,CN1C(=O)N(c2cn(C)cn2)C[C@H]1C(=O)NCc1ccc(F)c(F)c1Cl,15.8 nM
26,COc1cccc(N2CCN(Cc3ccc(F)cc3Cl)C(=O)C2=O)c1,158 nM

row,SMILES,IC50
1,Cc1ccc(C)c(N2CCN(Cc3ccc(F)cc3Cl)C(=O)C2=O)c1,7.94 nM
2,O=C(c1cccc(C(F)(F)F)c1Cl)N1CCn2c(nnc2-c2ccc(F)cn2)C1,2.51 nM
3,CC(C)c1ccccc1N1CCN(C(=O)c2ccc(F)cc2Cl)CC1=O,31.6 nM
4,Cc1cn2c(n1)CN(C(=O)c1cccc(Cl)c1Cl)CC2,316 nM
5,Cc1nn(CC(C)(C)C)c(C)c1CC(=O)NCc1ccc(F)cc1Cl,100 nM
6,O=C(NCc1ccc(Cl)cc1Cl)[C@H]1CCC(=O)N1Cc1cccnc1,63.1 nM
7,O=C(c1cccc(C(F)(F)F)c1Cl)N1CCn2c(nnc2-c2ccco2)C1,1.58 nM
8,Cc1cc(Cl)ccc1CNC(=O)[C@@H]1CCC(=O)N1C,25.1 nM
9,O=C(c1ccc(Cl)cc1Cl)N1CCn2c(nnc2-c2ccc(F)cn2)C1,12.6 nM
10,Cn1nccc1CC(=O)NCc1cccc(C(F)(F)F)c1Cl,25.1 nM
11,Cc1ccc(-n2nc(C)c(CC(=O)NCc3ccc(F)cc3Cl)c2C)cc1,126 nM
12,O=C(c1ccc(F)cc1Cl)N1CCn2c(nnc2-c2cccnn2)C1,501 nM
13,O=C(c1cccc(Cl)c1Cl)N1CCn2c(nnc2-c2cscn2)C1,1 nM
14,Cc1cccc(N2C[C@@H](C(=O)NCc3ccc(F)cc3Cl)N(C)C2=O)n1,398 nM
15,O=C1C(=O)N(c2ccccc2I)CCN1Cc1ccc(F)cc1Cl,7.94 nM
16,CCOc1cccc(-n2cc(CC(=O)NCc3ccc(F)cc3Cl)cn2)n1,1260 nM
17,CCN1C(=O)CC[C@H]1C(=O)NCc1ccccc1C#N,631 nM
18,O=C(c1cccc(Cl)c1Cl)N1CCN(c2ccc(Cl)cc2)C(=O)C1,126 nM
19,Cc1cc(Br)ccc1N1CCN(Cc2ccc(F)cc2Cl)C(=O)C1=O,79.4 nM
20,Cn1ncc(Cl)c1CC(=O)NCc1ccc(F)c(F)c1Cl,31.6 nM
21,Cc1cccc(C(=O)N2CCN(C)C(=O)C2)c1Cl,631 nM
22,Cc1nn(-c2ccccc2)c(C)c1CC(=O)NCc1c(Cl)cccc1Cl,63.1 nM
23,CCN1C(=O)NC[C@H]1C(=O)NCc1cccc(C(F)(F)F)c1Cl,3.98 nM
24,CN1C(=O)OC[C@@H]1C(=O)NCc1cccc(C(F)(F)F)c1Cl,50.1 nM
25,COc1cncc(-n2nc(C)c(CC(=O)NCc3ccc(F)cc3Cl)c2C)c1,398 nM
26,Cc1cc(N2C[C@@H](C(=O)NCc3ccc(F)c(F)c3Cl)N(C)C2=O)ccn1,31.6 nM

row,SMILES,IC50
1,O=C(c1cccc(C(F)(F)F)c1Cl)N1CCn2c(I)cnc2C1,3.98 nM
2,CN1C(=O)N(C2CCNCC2)CC1C(=O)NCc1cccc(C(F)(F)F)c1Cl (configuration not stated),31.6 nM
3,CN1C(=O)CC[C@H]1C(=O)NCc1cccc(F)c1C(F)(F)F,200 nM
4,COc1ccc(C)c(N2CCN(Cc3ccc(F)cc3Cl)C(=O)C2=O)c1,10 nM
5,Cc1nn(-c2ccc(N3CCCC3=O)cc2)c(C)c1CC(=O)NCc1ccc(F)cc1Cl,63.1 nM
6,Cc1cc(-c2nnc3n2CCN(C(=O)c2cccc(C(F)(F)F)c2Cl)C3)no1,12.6 nM
7,Cc1cccc(N2CCN(Cc3ccc(F)cc3Cl)C(=O)C2=O)c1N1CCOCC1,50.1 nM
8,O=C1C(=O)N(c2ccccc2N2CCCCC2)CCN1Cc1ccc(F)cc1Cl,50.1 nM
9,O=C1C(=O)N(c2ccc(F)cc2Cl)CCN1Cc1ccc(F)cc1Cl,200 nM
10,Cc1ccccc1N1CCN(Cc2c(C)cc(Cl)cc2Cl)C(=O)C1=O,5.01 nM
11,CC(C)N1[C@H](C(=O)NCc2ccc(F)cc2C(F)(F)F)CCS1(=O)=O,631 nM
12,O=C(c1ccc(F)cc1Cl)N1CCn2c(nnc2-c2cnc(Cl)cn2)C1,200 nM
13,Cc1ccccc1N1CCN(C(=O)c2ccc(Cl)cc2Cl)CC1=O,63.1 nM
14,CN1C(=O)N(c2ccc(F)nc2)C[C@H]1C(=O)NCc1ccc(Cl)cc1Cl,20 nM
15,O=C(c1cccc(C(F)(F)F)c1Cl)N1CCn2c(-c3ccc(F)cc3)cnc2C1,12.6 nM
16,CN1C(=O)N(Cc2ccccn2)CC1C(=O)NCc1ccc(F)c(F)c1Cl (configuration not stated),79.4 nM
17,CCN1C(=O)CC[C@H]1C(=O)NCc1ccccc1C,794 nM
18,CC(C)N1C(=O)CC[C@H]1C(=O)NCc1ccc(F)c(Cl)c1Cl,5.01 nM
19,O=C(c1c(Cl)cccc1Cl)N1CCN(c2ccc(F)cc2Cl)C(=O)C1,63.1 nM
20,CN1C(=O)N(c2cc(C(F)(F)F)ncn2)C[C@H]1C(=O)NCc1ccc(Cl)cc1Cl,31.6 nM
21,Cc1ccc(N2C[C@@H](C(=O)NCc3ccc(F)c(F)c3Cl)N(C)C2=O)cn1,31.6 nM
22,CC(C)N1CCN(C(=O)c2cccc(C(F)(F)F)c2Cl)CC1=O,100 nM
23,O=C(c1ccccc1Cl)N1CCn2c(nnc2-c2ncccc2F)C1,31.6 nM
24,CCN1CC(C(=O)NCc2ccc(Cl)cc2Cl)CC1=O (configuration not stated),126 nM
